Laboratory results reported in patent EP0545103A1, “Insecticidal, acaricidal and molluscicidal 1-(substituted) thioalkylpyrroles” (priority 1991, dated 1993).

Tests used:
Format in all cases: in vivo
[1] = tested on: Diabrotic undecimpunctata howardi, 3rd instar southern corn rootworm; test: Southern corn rootworm soil test; parameters: key: 0: no effect; 10-25% kill; 26-35% kill; 36-45% kill; 46-55% kill; 56-65% kill; 66-75% kill; 76-85% kill; 86-99% kill; 9: 100% kill; details: mortality rating after 6 days
Method: Diabrotic undecimpunctata howardi, 3rd instar southern corn rootworm
One cc of fine talc is placed in a 30 mL wide-mouth screw-top glass jar. One mL of the appropriate acetone test solution is pipetted onto the talc so as to provide 1.25 and 0.25 mg of active ingredient per jar. The jars are set under a gentle air flow until the acetone is evaporated. The dried talc is loosened, 1 cc of millet seed is added to serve as food for the insects and 25 mL of moist soil is added to each jar. The jar is capped and the contents thoroughly mixed on a Vortex Mixer. Following this, ten 3rd instar rootworms are added to each jar and the jars are loosely capped to allow air exchange for the larvae. The treatments are held for 6 days when mortality counts are made. Missing larvae are presumed dead, since they decompose rapidly and can not be found. The concentrations used in this test correspond approximately to 50 and 10 kg/ha, respectively.
(§1) All of the above tests are rated according to the rating scale shown below.

[2] = tested on: Tetranychus urticae (OP-resistant strain), 2-spotted spider mite; test: 2-spotted spider mite test, dipped infested limabean plants; parameters: key: 0: no effect; 10-25% kill; 26-35% kill; 36-45% kill; 46-55% kill; 56-65% kill; 66-75% kill; 76-85% kill; 86-99% kill; 9: 100% kill
Method: (§2) Test solutions are prepared by dissolving the test compound in a 35% acetone in water mixture to give a concentration of 10,000 ppm. Subsequent dilutions are made with water as needed.
Tetranychus urticae (OP-resistant strain), 2-spotted spider mite
Sieva limabean plants with primary leaves expanded to 7-8 cm are selected and cut back to one plant per pot. A small piece is cut from an infested leaf taken from the main colony and placed on each leaf of the test plants. This is done about 2 hours before treatment to allow the mites to move over to the test plant and to lay eggs. The size of the cut, infested leaf is varied to obtain about 100 mites per leaf. At the time of test treatment, the piece of leaf used to transfer the mites is removed and discarded. The newly mite-infested plants are dipped in the test solution for 3 seconds with agitation and set in the hood to dry. After 2 days one leaf is removed and mortality counts are made. After 5 days, another leaf is removed and observations are made of mortality of the eggs and/or newly emerged nymphs.
as §1

[3] = tested on: Heliothis virescens, egg, tobacco budworm; test: Tobacco budworm egg test, dipped cotton leaf and eggs; parameters: key: 0: no effect; 10-25% kill; 26-35% kill; 36-45% kill; 46-55% kill; 56-65% kill; 66-75% kill; 76-85% kill; 86-99% kill; 9: 100% kill; details: mortality rating after 3 days
Method: as §2
Heliothis virescens, egg, tobacco budworm
A young cotton leaf about 6-7cm in length is dipped in an agitated test suspension for about 3 seconds. Eggs are collected on a cheesecloth and the cloth is cut into 10-20mm squares, each containing approximately 50-100 eggs which are 6-30 hours old. The egg-containing cheesecloth square is similarly dipped in a test suspension and placed on a treated cotton leaf. The combination is dried in a hood and then placed in an 8 ounce Dixie® cup #2168-ST (240ml volume, 6cm tall, 9.5cm top diameter, 8.0cm bottom diameter) into which a 5cm length of damp dental wick has been placed. The cup is covered with a clear plastic lid and held for 3 days, after which mortality counts are made.
as §1

[4] = tested on: Spodoptera eridania, 3rd instar larvae, southern armyworm; test: Southern armyworm 7-day residual test; details: R designates Residual: 7-day residual foliage, concentration not given; for ARMYWORM Day 3 R: rating at 3 days; for ARMYWORM Day 5 R: rating at 5 days
Method: as §2
Spodoptera eridania, 3rd instar larvae, southern armyworm, 7-day residual
The limabean leaves treated in the above test are maintained under high intensity lamps in the greenhouse for 7 days. These lamps duplicate the effects of a bright sunny day in June in New Jersey and are kept on for 14 hour day length. After 7 days, the foliage is sampled and assayed as in the above-said test.
as §1

[5] = tested on: Empoasca abrupta, adult, western potato leafhopper; test: Western potato leafhopper systemic uptake test; parameters: key: 0: no effect; 10-25% kill; 26-35% kill; 36-45% kill; 46-55% kill; 56-65% kill; 66-75% kill; 76-85% kill; 86-99% kill; 9: 100% kill; details: 100 ppm; systemic uptake; rating scale 0-9
Method: Empoasca abrupta, adult, western potato leafhopper Systemic Uptake
An emulsion containing 0.1 gm of the test material, 0.2 gm of Emulphor EL-620® emulsifier, 10 mL of acetone and 90 mL of water is prepared and diluted 10-fold with water to give a 100 ppm emulsion. Subsequent 10-fold dilutions are made with water as needed. Sieva limabean plants, with the primary leaves expanded to a length of 7-8 cm, are cut off at least 3 cm above the soil level to avoid contamination with soil bacteria which will cause decay of the stem during the test. The cut stem is placed in the test emulsion and wrapped with a bit of cotton to hold the stem off the bottom of the bottle and to limit evaporation. The treated stem is maintained for 3 days at 27°C to allow the test compound to be taken up into the plant. Following this, one leaf is removed from the plant and placed in a 100 x 10 mm petri dish containing a moist filter paper and about 10 adult leafhoppers as described above. Mortality counts are made after 2 days.
as §1

[6] = tested on: Spodoptera eridania, 3rd instar larvae, southern armyworm; test: Southern armyworm 3rd instar test, dipped limabean leaf; parameters: key: 0: no effect; 10-25% kill; 26-35% kill; 36-45% kill; 46-55% kill; 56-65% kill; 66-75% kill; 76-85% kill; 86-99% kill; 9: 100% kill; details: for ARMYWORM Day 3: rating at 3 days; for ARMYWORM Day 5: rating at 5 days
Method: as §2
Spodoptera eridania, 3rd instar larvae, southern armyworm
A Sieva limabean leaf expanded to 7-8 cm in length is dipped in the test solution with agitation for 3 seconds and allowed to dry in a hood. The leaf is then placed in a 100 x 10 mm petri dish containing a damp filterpaper on the bottom and ten 3rd instar caterpillars. At 3 and 5 days, observations are made of mortality, reduced feeding, or any interference with normal molting.
as §1

[7] = tested on: Aphis fabae, mixed instar, bean aphid; test: Bean aphid spray test on nasturtium; parameters: key: 0: no effect; 10-25% kill; 26-35% kill; 36-45% kill; 46-55% kill; 56-65% kill; 66-75% kill; 76-85% kill; 86-99% kill; 9: 100% kill; details: 100 ppm
Method: as §2
Aphis fabae, mixed instar, bean aphid
Pots containing single nasturtium plants (Tropaeolum sp.) about 5 cm tall are infested with about 100-200 aphids one day prior to treatment. Each pot is sprayed with the test solution for 2 revolutions of a 4 rpm turntable in a hood, using a #154 DeVilbiss atomizer. The spray tip is held about 15 cm from the plant and the spray directed so as to give complete coverage of the plants and the aphids. The sprayed pots are set on their sides on white enamel trays and mortality estimates are made after 2 days.
as §1

[8] = tested on: Spodoptera eridania, 3rd instar larvae, southern armyworm; test: Southern armyworm systemic uptake (stem systemic) test; parameters: key: 0: no effect; 10-25% kill; 26-35% kill; 36-45% kill; 46-55% kill; 56-65% kill; 66-75% kill; 76-85% kill; 86-99% kill; 9: 100% kill; details: cut stem in emulsion 3 days
From the text: Spodoptera eridania, systemic uptake, 3rd instar larvae, southern armyworm
Subsequent 10-fold dilutions are made with water as needed. Sieva limabean plants, with the primary leaves expanded to a length of 7-8 cm, are cut off at least 3 cm above the soil level to avoid contamination with soil bacteria which will cause decay of the stem during the test. The cut stem is placed in the test emulsion and wrapped with a bit of cotton to hold the stem off the bottom of the bottle and to limit evaporation. The treated stem is thus maintained for 3 days at 27° C to allow the test compound to be taken up into the plant. Following this, one leaf is removed from the plant and placed in a 100 x 10 mm petri dish with 10 southern armyworms as described above. Mortality counts and observations of feeding damage are made 3 and 5 days later.
as §1

[9] = tested on: Empoasca abrupta, adult, western potato leafhopper; test: Western potato leafhopper contact test, dipped limabean leaf; parameters: key: 0: no effect; 10-25% kill; 26-35% kill; 36-45% kill; 46-55% kill; 56-65% kill; 66-75% kill; 76-85% kill; 86-99% kill; 9: 100% kill; details: mortality rating after 2 days
Method: as §2
Empoasca abrupta, adult, western potato leafhopper
A Sieva limabean leaf about 5 cm long is dipped in the test solution for 3 seconds with agitation and placed in a hood to dry. The treated leaf is placed in a 100 x 10 mm petri dish containing a moist filter paper and about 10 adult leafhoppers are added. After 2 days, mortality counts are made.
as §1

[10] = 300 ppm, adult mites, rating scale 0-9
[11] = 300 ppm, mite eggs, rating scale 0-9
[12] = 300 ppm, mite nymphs, rating scale 0-9

Compound | SOUTHERN CORN ROOTWORM ([1]; 50 (ppm as headed)) | OP-RESISTANT MITES Adult [2, 10] | OP-RESISTANT MITES Egg [2, 11] | OP-RESISTANT MITES Nymph [2, 12] | TOBACCO BUDWORM Egg ([3]; 100 ppm) | TOBACCO BUDWORM Egg ([3]; 1000 ppm) | ARMYWORM Day 3 R [4] | ARMYWORM Day 5 R [4] | LEAFHOPPER Systemic [5] | ARMYWORM Day 3 ([6]; 10 ppm) | ARMYWORM Day 5 ([6]; 10 ppm) | ARMYWORM Day 3 ([6]; 100 ppm) | ARMYWORM Day 5 ([6]; 100 ppm) | ARMYWORM Day 3 ([6]; 1000 ppm) | ARMYWORM Day 5 ([6]; 1000 ppm) | APHIDS ([7]; rating scale 0-9) | ARMYWORM Stem Sys [8] | further results
N#Cc1c(Br)c(C(F)(F)F)n(CSC2=NCCCCN2)c1-c1ccc(Cl)cc1 [Example 11] | 0 | 0 | 0 | 0 | 3 (36-45% kill) | 5 (56-65% kill) | 9 (100% kill) | 9 (100% kill) | 9 (100% kill) | 9 (100% kill) | 9 (100% kill) | 9 (100% kill) | 9 (100% kill) | 9 (100% kill) | 9 (100% kill) | 0 | 9 (100% kill) | –
N#Cc1c(Br)c(C(F)(F)F)n(CSc2ncc[nH]2)c1-c1ccc(Cl)cc1 [Example 1] | 0 | 0 | 0 | 0 | 0 | 0 | 9 (100% kill) | 9 (100% kill) | 0 | 9 (100% kill) | 9 (100% kill) | 9 (100% kill) | 9 (100% kill) | 9 (100% kill) | 9 (100% kill) | 0 | 0 | –
CCN=C(NCC)SCn1c(-c2ccc(Cl)cc2)c(C#N)c(Br)c1C(F)(F)F [Example 12] | – | 0 | 0 | 0 | – | 0 | 9 (100% kill) | 9 (100% kill) | – | 9 (100% kill) | 9 (100% kill) | 9 (100% kill) | 9 (100% kill) | 9 (100% kill) | 9 (100% kill) | 0 | 0 | SOUTHERN CORN ROOTWORM ([1]; 1 (ppm as headed)): 0
N#Cc1c(Br)c(C(F)(F)F)n(CSC2=NCCCN2)c1-c1ccc(Cl)cc1 [Example 8] | 0 | – | – | – | 0 | 0 | 9 (100% kill) | 9 (100% kill) | – | 0 | – | 9 (100% kill) | – | 9 (100% kill) | – | – | 9 (100% kill) | OP-RESISTANT MITES Adult ([2]; 10 ppm, mortality rating after 2 days): 0; OP-RESISTANT MITES Nymph ([2]; 10 ppm, rating after 5 days): 0; OP-RESISTANT MITES Adult ([2]; 100 ppm, mortality rating after 2 days): 9 (100% kill); OP-RESISTANT MITES Nymph ([2]; 100 ppm, rating after 5 days): 8 (86-99% kill); OP-RESISTANT MITES Adult ([2]; 300 ppm, mortality rating after 2 days): 9 (100% kill); OP-RESISTANT MITES Egg ([2]; 300 ppm, rating after 5 days): 0; OP-RESISTANT MITES Nymph ([2]; 300 ppm, rating after 5 days): 0; LEAFHOPPER Contact ([9]; 10 ppm): 0; LEAFHOPPER Contact ([9]; 100 ppm): 8 (86-99% kill); APHIDS ([7]; spray, mortality rating after 2 days): 0
